Test results taken from PMC11078216, “Discovery of potent and selective activity-based probes (ABPs) for the deubiquitinating enzyme USP30” (RSC Chemical Biology, 2024).
Values belong to the compound of their own block, whether it stands above or below them.

What was measured:
Test in all cases: ABPP chemical proteomics (LC-MS/MS) in HEK293T cells
Assay type in all cases: cell-based
PPAT = biological target: T1, PPAT (Homo sapiens, UniProt Q06203)
T1 construct: endogenous in cells; host or cells: HEK293T
T1 sequence (Q06203 12-517): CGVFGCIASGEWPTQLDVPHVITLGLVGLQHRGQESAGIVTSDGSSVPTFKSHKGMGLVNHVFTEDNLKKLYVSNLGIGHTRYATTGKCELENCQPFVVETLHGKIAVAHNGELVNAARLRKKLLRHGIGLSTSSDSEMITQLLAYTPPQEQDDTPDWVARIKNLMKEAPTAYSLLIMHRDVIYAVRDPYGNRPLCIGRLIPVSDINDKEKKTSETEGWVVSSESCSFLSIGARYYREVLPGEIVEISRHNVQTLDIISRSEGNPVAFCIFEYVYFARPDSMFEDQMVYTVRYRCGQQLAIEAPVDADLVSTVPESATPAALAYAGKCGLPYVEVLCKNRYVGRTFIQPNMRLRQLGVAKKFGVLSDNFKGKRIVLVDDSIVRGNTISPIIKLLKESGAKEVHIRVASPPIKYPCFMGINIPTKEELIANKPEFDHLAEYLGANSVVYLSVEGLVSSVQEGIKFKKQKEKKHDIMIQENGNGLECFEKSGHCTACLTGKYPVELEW
Procedure: (§1) To explore the selectivity of IMP-2587 and IMP-2586 across the whole proteome, we performed quantitative activity-based protein profiling (ABPP) in HEK293T cells following treatment with IMP-2587 or IMP-2586 (Fig. 3a). After ABP incubation, cells were lysed, and probe-labelled proteins were ligated to biotinylated capture reagents.[27] […] USP30 was outcompeted by corresponding parent inhibitors for each ABP (Fig. 5b and d and Tables S3 and S5, ESI ^†), confirming the high potency and rapid engagement of IMP-2587 and IMP-2586 in cells. […] DESI1 and DESI2 are small ubiquitin-related modifier (SUMO) proteases,[3,29–32] and IMP-2587 and IMP-2586 may offer a starting point for future development of DESI ABPs. […]
(§2) d) Live cell probe incubation, lysate click chemistry and precipitation 6-well HEK293T cells were incubated with media containing compounds ABP 2 and ABP 4 at indicated concentrations for 1 h at 37 °C. The cells were washed with PBS and lysed with lysis buffer (50 μL (1% (v/v) Triton X-100, 0.1% (w/v) sodium dodecyl sulfate (SDS), EDTA-free complete protease inhibitor cocktail (1×, Roche) in PBS on ice for 10 min. The lysates were scraped and transferred to corresponding Lo-Bind Eppendorfs. Each lysate was sonicated for 1 minute, and the samples centrifuges at 5,000 x g at 4 °C for 5 minutes to pellet insoluble cellular debris. The supernatant was collected, and protein concentration was determined using the DC Protein Assay (Bio-Rad) as per manufacturer’s instructions, and normalised to lowest concentrated sample (e.g. 1 mg/mL, using lysis buffer). The following “click mixture” was prepared separately, preparing 6 μL for every 100 μL of […]
(§3) Capture reagent (AzRB/AzT for ABP 2, YnT/YnB for ABP 4 10 mM in DMSO, 1 vol; final concentration […]
(§4) CuSO4 (50 mM in water, 2 vol; final concentration in reaction 1 mM)
(§5) TCEP (50 mM in water, 2 vol; final concentration in reaction 1 mM)
(§6) TBTA (10 mM in DMSO, 1 vol; final concentration in reaction 100 µM)
(§7) The click mixture was vortexed and incubated at room temperature for 2 min before 6 μL of the mixture was added to every 100 μL of lysate. The reaction mixtures were shaken at room temperature for 1 h before being quenched with EDTA (500 mM in H2O) to a final concentration of 10 mM.
(§8) Proteins were precipitated by adding H2O (1 vol), MeOH (2 vol) and CHCl3 (0.5 vol), vortexing briefly then centrifuging at 17,000 × g for 5 min. The top H2O/MeOH layer was discarded and the middle layer of protein pellet and lower CHCl3 layer retained. The suspension was washed with MeOH (300 μL), and sonicated to break up the pellet. The proteins were pelleted by centrifugation at 10,000–17000 × g for 5–10 min or until a compact pellet was formed. The protein pellet was washed once more with MeOH (1 mL). The pellet was resuspended by sonicating and completely dissolving in 1% (w/v) SDS in PBS (to 5 mg/mL protein) before being made up to 1 mg/mL protein with PBS.
(§9) The lysate samples (10-20 μg) were mixed with 4× Laemmli sample loading buffer (250 mM Tris -HCl pH 6.8, 30% (v/v) glycerol, 10% (w/v) SDS, 0.05% (w/v) bromophenol blue) supplemented with 20% v/v β-mercaptoethanol (BME) and boiled for 10 min at 95 °C. The resulting protein samples were separated according to the protocol in section 3.2.c. Gel were imaged on a Typhoon imager (GE Healthcare; λEx 532 nm, λEm 575 nm for TAMRA. For protein loading quantification, gels were stained with Coomassie blue staining solution overnight, rinsed with water and imaged on an ImageQuant™ LAS 4000 imager (GE Healthcare). f) Neutravidin biotin enrichment (Affinity pull-down)
(§10) Click chemistry and precipitation steps were carried out as described in section 3.2.d, on at least 400ug of protein per sample. The pellet was resuspended by sonicating and completely dissolving in 1% (w/v) SDS in HEPES 50 mM pH 8.0, before being made up to 1 mg/mL protein with HEPES 50 mM pH 8.0 to […]
(§11) achieve a final concentration of 0.2% SDS. 20uL of each samples was collected as TL (Total lysate) […]
(§12) samples. […]

SRP68 = biological target: T2, SRP68 (Homo sapiens, UniProt Q9UHB9)
T2 construct: endogenous in cells; host or cells: HEK293T
Procedure: as §1, §2, §3, §4, §5, §6, §7, §8, §9, §10, §11, §12

PGAP1 = biological target: T3, PGAP1 (Homo sapiens, UniProt Q75T13)
T3 construct: endogenous in cells; host or cells: HEK293T
T3 sequence (Q75T13 whole entry): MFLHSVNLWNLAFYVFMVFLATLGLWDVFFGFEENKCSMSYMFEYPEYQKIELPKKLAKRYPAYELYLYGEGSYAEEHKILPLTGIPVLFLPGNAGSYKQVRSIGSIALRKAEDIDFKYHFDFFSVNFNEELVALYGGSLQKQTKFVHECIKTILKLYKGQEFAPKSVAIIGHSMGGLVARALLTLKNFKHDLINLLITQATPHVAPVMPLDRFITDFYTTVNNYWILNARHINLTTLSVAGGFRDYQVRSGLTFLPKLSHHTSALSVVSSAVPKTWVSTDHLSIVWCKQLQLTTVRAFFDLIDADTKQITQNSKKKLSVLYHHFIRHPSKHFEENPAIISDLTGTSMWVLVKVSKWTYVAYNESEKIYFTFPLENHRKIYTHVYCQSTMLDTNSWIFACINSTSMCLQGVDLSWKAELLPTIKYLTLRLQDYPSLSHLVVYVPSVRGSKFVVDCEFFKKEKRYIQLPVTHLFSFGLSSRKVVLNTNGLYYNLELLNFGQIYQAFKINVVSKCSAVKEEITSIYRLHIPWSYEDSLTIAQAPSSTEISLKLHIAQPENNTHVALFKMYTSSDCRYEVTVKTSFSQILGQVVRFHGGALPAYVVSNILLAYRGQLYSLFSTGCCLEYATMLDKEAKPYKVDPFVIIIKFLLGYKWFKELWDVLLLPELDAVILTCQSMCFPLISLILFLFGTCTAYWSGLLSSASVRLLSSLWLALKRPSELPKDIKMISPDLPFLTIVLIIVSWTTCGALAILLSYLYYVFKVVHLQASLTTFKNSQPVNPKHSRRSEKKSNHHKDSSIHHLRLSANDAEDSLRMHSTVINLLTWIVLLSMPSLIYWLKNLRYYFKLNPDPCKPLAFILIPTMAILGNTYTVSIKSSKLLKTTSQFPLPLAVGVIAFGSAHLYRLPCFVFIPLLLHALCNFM
Procedure: as §1, §2, §3, §4, §5, §6, §7, §8, §9, §10, §11, §12

CTSZ = biological target: T4, CTSZ (Homo sapiens, UniProt Q9UBR2)
T4 construct: endogenous in cells; host or cells: HEK293T
T4 sequence (Q9UBR2 62-303): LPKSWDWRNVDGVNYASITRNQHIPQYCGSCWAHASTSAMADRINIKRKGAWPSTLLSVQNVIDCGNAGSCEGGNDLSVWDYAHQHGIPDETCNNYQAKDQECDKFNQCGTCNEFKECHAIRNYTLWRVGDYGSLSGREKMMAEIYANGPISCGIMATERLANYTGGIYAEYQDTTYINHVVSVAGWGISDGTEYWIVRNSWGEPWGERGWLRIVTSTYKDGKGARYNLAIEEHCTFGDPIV
Procedure: as §1
The cells were washed with PBS and lysed with lysis buffer (50 μL (1% (v/v) Triton X-100, 0.1% (w/v) sodium dodecyl sulfate (SDS), EDTA-free complete protease inhibitor cocktail (1×, Roche) in PBS on ice for 10 min. The lysates were scraped and transferred to corresponding Lo-Bind Eppendorfs. Each lysate was sonicated for 1 minute, and the samples centrifuges at 5,000 x g at 4 °C for 5 minutes to pellet insoluble cellular debris. The supernatant was collected, and protein concentration was determined using the DC Protein Assay (Bio-Rad) as per manufacturer’s instructions, and normalised to lowest concentrated sample (e.g. 1 mg/mL, using lysis buffer). […]

FAAH = biological target: T5, FAAH (Homo sapiens, UniProt O00519)
T5 construct: endogenous in cells; host or cells: HEK293T
T5 sequence (O00519 whole entry): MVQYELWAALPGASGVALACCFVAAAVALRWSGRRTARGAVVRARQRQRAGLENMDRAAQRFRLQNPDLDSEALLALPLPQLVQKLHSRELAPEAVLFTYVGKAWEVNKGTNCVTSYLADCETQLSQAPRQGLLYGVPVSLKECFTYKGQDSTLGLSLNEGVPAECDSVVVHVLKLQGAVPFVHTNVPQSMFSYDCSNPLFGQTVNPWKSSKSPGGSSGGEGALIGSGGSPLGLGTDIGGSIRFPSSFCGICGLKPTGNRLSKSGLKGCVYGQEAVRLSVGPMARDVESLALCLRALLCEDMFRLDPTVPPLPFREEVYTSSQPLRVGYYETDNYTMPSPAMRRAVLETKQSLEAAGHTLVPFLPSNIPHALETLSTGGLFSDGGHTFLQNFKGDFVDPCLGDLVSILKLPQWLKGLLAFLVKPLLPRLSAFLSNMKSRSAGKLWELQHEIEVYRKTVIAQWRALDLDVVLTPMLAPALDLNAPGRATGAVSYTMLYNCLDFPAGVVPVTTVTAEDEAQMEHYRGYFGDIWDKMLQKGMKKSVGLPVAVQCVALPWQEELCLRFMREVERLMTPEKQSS
Procedure: as §1, §2, §3, §4, §5, §6, §7, §8, §9, §10, §11, §12

ALDH3A2 = biological target: T6, ALDH3A2 (Homo sapiens, UniProt P51648)
T6 construct: endogenous in cells; host or cells: HEK293T
T6 sequence (P51648 whole entry): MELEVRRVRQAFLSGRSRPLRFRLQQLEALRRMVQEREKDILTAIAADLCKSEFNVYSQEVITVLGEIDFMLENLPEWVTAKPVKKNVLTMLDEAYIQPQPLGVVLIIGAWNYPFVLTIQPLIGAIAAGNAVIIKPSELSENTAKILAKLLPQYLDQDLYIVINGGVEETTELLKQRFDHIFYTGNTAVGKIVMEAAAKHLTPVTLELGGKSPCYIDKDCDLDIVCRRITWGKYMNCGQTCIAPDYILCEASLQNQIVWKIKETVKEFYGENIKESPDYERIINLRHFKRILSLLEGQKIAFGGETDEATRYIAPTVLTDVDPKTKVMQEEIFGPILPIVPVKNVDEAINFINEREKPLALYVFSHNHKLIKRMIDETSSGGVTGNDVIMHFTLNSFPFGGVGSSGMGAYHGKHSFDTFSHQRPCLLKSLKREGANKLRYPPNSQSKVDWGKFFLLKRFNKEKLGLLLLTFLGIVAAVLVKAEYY
Procedure: as §1, §2, §3, §4, §5, §6, §7, §8, §9, §10, §11, §12

ABHD6 = biological target: T7, ABHD6 (Homo sapiens, UniProt Q9BV23)
T7 construct: endogenous in cells; host or cells: HEK293T
T7 sequence (Q9BV23 whole entry): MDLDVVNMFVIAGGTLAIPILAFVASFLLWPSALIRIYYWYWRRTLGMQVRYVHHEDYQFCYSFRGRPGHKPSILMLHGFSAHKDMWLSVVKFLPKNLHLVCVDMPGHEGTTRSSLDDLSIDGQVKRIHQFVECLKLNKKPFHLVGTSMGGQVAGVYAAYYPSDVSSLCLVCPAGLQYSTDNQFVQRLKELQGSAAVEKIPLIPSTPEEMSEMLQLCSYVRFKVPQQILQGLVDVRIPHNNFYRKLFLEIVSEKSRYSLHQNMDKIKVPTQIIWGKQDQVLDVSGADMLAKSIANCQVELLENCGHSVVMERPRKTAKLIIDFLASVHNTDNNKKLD
Procedure: as §1, §2, §3, §4, §5, §6, §7, §8, §9, §10, §11, §12

FAAH2 = biological target: T8, FAAH2 (Homo sapiens, UniProt Q6GMR7)
T8 construct: endogenous in cells; host or cells: HEK293T
T8 sequence (Q6GMR7 whole entry): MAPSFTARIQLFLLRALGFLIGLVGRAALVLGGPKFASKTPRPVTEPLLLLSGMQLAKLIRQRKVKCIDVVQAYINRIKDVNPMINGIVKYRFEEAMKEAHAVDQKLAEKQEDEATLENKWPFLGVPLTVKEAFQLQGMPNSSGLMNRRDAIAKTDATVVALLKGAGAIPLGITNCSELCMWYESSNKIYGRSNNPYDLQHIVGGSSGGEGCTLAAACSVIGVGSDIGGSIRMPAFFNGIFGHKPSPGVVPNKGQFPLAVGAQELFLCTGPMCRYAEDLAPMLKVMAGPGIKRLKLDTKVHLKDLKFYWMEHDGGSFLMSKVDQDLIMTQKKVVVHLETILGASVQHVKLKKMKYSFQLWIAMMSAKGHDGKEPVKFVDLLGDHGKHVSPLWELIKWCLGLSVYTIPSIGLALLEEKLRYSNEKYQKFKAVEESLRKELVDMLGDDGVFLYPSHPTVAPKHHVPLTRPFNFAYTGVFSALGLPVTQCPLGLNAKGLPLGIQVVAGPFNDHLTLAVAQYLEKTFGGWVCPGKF
Procedure: as §1, §2, §3, §4, §5, §6, §7, §8, §9, §10, §11, §12

ALDH1A1 = biological target: T9, ALDH1A1 (Homo sapiens, UniProt P00352)
T9 construct: endogenous in cells; host or cells: HEK293T
T9 sequence (P00352 whole entry): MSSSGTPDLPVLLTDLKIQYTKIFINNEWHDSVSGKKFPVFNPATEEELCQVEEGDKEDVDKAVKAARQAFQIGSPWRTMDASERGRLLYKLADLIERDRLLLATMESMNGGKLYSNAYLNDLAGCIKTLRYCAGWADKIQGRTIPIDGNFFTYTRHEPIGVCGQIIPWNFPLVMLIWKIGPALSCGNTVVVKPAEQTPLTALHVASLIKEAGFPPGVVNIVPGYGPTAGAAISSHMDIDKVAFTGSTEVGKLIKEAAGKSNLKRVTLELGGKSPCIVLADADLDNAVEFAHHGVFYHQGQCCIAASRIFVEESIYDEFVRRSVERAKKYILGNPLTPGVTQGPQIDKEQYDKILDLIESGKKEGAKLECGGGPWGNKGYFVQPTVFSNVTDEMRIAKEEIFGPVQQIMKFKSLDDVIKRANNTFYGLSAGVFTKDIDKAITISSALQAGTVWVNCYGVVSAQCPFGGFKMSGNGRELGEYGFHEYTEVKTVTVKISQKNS
Procedure: as §1, §2, §3, §4, §5, §6, §7, §8, §9, §10, §11, §12

MRPS2 = biological target: T10, MRPS2 (Homo sapiens, UniProt Q9Y399)
T10 construct: endogenous in cells; host or cells: HEK293T
Procedure: as §1, §2, §3, §4, §5, §6, §7, §8, §9, §10, §11, §12

ALDH9A1 = biological target: T11, ALDH9A1 (Homo sapiens, UniProt P49189)
T11 construct: endogenous in cells; host or cells: HEK293T
T11 sequence (P49189 whole entry): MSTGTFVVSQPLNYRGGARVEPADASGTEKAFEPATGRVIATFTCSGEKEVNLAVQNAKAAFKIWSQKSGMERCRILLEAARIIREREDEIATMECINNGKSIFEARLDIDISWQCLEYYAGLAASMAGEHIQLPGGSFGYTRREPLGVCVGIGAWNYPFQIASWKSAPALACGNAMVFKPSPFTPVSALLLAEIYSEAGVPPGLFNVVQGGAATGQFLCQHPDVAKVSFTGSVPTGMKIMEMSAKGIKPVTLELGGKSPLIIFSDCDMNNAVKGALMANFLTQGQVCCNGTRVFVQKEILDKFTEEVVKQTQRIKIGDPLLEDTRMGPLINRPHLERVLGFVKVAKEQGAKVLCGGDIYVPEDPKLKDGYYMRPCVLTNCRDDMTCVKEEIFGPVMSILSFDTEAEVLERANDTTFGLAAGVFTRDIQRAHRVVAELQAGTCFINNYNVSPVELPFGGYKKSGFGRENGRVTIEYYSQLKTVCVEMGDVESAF
Procedure: as §1, §2, §3, §4, §5, §6, §7, §8, §9, §10, §11, §12

[1] = IMP-2586 labelling vs DMSO, 30 nM, 10 min, HEK293T (Table S4, Fig.5c)
[2] = IMP-2587 labelling vs DMSO, 30 nM, 10 min, HEK293T (Table S2, Fig.5a)
[3] = compound 1 out-competition with IMP-2587 labelling, HEK293T (Table S3, Fig.5b)
[4] = compound 3 out-competition with IMP-2586 labelling, HEK293T (Table S5, Fig.5d)

SMILES: N#CN1CC[C@@H](NC(=O)c2cc(-c3ccccc3Oc3ccc(N=[N+]=[N-])cc3)n[nH]2)C1 [IMP-2586]
Difference (log2 fold change of enrichment) (PPAT; [1]): 0.83 | Difference (log2 fold change of enrichment) (SRP68; [1]): 0.45 | Difference (log2 fold change of enrichment) (PGAP1; [1]): 2.66

SMILES: C#Cc1cccc(-c2cc(NC(=O)CC3CCN(C#N)C3)on2)c1 (stereo not shown) [IMP-2587]
Difference (log2 fold change of enrichment) (CTSZ; [2]): 2.29 | Difference (log2 fold change of enrichment) (FAAH; [2]): 3.97 | Difference (log2 fold change of enrichment) (ALDH3A2; [2]): 2.95 | Difference (log2 fold change of enrichment) (ABHD6; [2]): 2.06 | Difference (log2 fold change of enrichment) (FAAH2; [2]): 4.10 | Difference (log2 fold change of enrichment) (ALDH1A1; [2]): 2.95 | Difference (log2 fold change of enrichment) (MRPS2; [2]): 2.58 | Difference (log2 fold change of enrichment) (ALDH9A1; [2]): 1.70

Difference (log2 fold change of enrichment) (CTSZ; [3]): -2.01 | Difference (log2 fold change of enrichment) (FAAH; [3]): -3.46 | Difference (log2 fold change of enrichment) (ALDH3A2; [3]): -1.88 | Difference (log2 fold change of enrichment) (ABHD6; [3]): -1.95 | Difference (log2 fold change of enrichment) (FAAH2; [3]): -3.82 | Difference (log2 fold change of enrichment) (ALDH1A1; [3]): -2.59 | Difference (log2 fold change of enrichment) (MRPS2; [3]): -2.58 | Difference (log2 fold change of enrichment) (ALDH9A1; [3]): -1.60
SMILES: N#CN1CC[C@H](CC(=O)Nc2cc(-c3cccc(Cl)c3)no2)C1 [compound 1, reference compound]

Difference (log2 fold change of enrichment) (PPAT; [4]): -0.44 | Difference (log2 fold change of enrichment) (SRP68; [4]): -0.40 | Difference (log2 fold change of enrichment) (PGAP1; [4]): -2.38
SMILES: N#CN1CC[C@@H](NC(=O)c2cc(-c3ccccc3Oc3ccccc3)n[nH]2)C1 [compound 3, reference compound]
